Structures can show the parent of a compound that is named as a salt.
Tests used:
[1] = molecular target: T1, PIM1 serine/threonine kinase (Homo sapiens, UniProt P11309); assay: PIM1 serine/threonine kinase inhibitory effect; assay type: biochemical; settings: PIM1 serine/threonine kinase activity; ATP 40 μM; 30° C., 30 minutes
T1 construct: purchased Carna Bioscience, Inc
Outline: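 Compounds were tested in duplicate from 0.01 to 10000 nM final against PIM1 kinase (0.15 μg/ml). The reaction ran for 30 minutes at 30° C with 40 μM ATP and 0.5 μM biotin-tagged substrate at pH 7.0. Phosphorylation was read by time-resolved FRET (OD665/OD620) after 1 h; IC50 by non-linear fit.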

[2] = molecular target: PIM1 transgenic cells (Ba/F3) (Homo sapiens, UniProt P11309); assay: Proliferation inhibitory effect on PIM1 transgenic cells; assay type: cell-based, mouse; settings: proliferation inhibition, 72 hours, Cell Counting Kit-8, read-out: PIM1 IC50
Chain of PIM1 transgenic cells (Ba/F3) (P11309 whole entry, stated change not applied): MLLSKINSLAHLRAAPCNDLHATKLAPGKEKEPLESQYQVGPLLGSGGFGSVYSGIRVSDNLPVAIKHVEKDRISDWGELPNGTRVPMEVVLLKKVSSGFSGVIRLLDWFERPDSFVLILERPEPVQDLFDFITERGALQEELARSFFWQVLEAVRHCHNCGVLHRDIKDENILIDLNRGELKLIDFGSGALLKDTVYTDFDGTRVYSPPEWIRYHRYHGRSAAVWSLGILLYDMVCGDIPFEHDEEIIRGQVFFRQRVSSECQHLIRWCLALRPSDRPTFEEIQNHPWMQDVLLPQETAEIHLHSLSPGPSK
Outline: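 Mouse Ba/F3 pro-B cells were retrovirally transduced with human PIM1 so that their proliferation depends on PIM1. Cells were treated with compound at 1–10000 nM final for 72 h, then read by CCK-8 (OD450−OD650). Inhibition was set against DMSO (0%) and no-cell blank (100%), and IC50 was obtained by two-parameter logistic regression.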

T1 sequence (P11309 whole entry): as the sequence (P11309 whole entry, stated change not applied) above

SMILES | IC50 [1] | GI50 [2]
CC(C)c1c(F)cc(-c2n[nH]c(=O)o2)cc1N[C@@H](C)[C@H]1CC[C@H](N)CC1 [Example 233, 5-[3-({(1S)-1-[(1r,4S)-4-aminocyclohexyl]ethyl}amino)-5-fluoro-4-(propan-2-yl)phenyl]-1,3,4-oxadiazol-2(3H)-one hydrochloride] | 5.5 nM | 44 nM
CC(Oc1cc(-c2n[nH]c(=O)o2)ccc1C(F)(F)F)C1CCNCC1 (stereo not drawn) [Example 239, 5-{3-[1-(piperidin-4-yl)ethoxy]-4-(trifluoromethyl)phenyl}-1,3,4-oxadiazol-2(3H)-one] | 10 nM | 250 nM
C[C@H](Nc1cc(-c2n[nH]c(=O)o2)ccc1C(F)(F)F)C12C3C4C1C1C2C3C41N (stereo partly drawn) [Example 186, 5-[3-({(1S)-1-[(2S,3R)-4-aminocuban-1-yl]ethyl}amino)-4-(trifluoromethyl)phenyl]-1,3,4-oxadiazol-2(3H)-one hydrochloride] | 11 nM | 2300 nM
O=c1[nH]nc(-c2ccc(C(F)(F)F)c(N[C@H](C3CCNCC3)C(F)(F)F)c2)o1 [Example 146, 5-[4-(trifluoromethyl)-3-{[(1R)-2,2,2-trifluoro-1-(piperidin-4-yl)ethyl]amino}phenyl]-1,3,4-oxadiazol-2(3H)-one hydrochloride] | 12 nM | 89 nM
N[C@H]1CC[C@@H](COc2cc(-c3n[nH]c(=O)o3)ccc2Cl)CC1 [Example 243, 5-(3-{[(1s,4s)-4-aminocyclohexyl]methoxy}-4-chlorophenyl)-1,3,4-oxadiazol-2(3H)-one] | 4.1 nM | 150 nM
C[C@@H](CN)Oc1ccc(-c2cc(-c3n[nH]c(=O)o3)ccc2C(F)(F)F)cc1 [Example 24, 5-[4′-{[(2S)-1-aminopropan-2-yl]oxy}-6-(trifluoromethyl)[1,1′-biphenyl]-3-yl]-1,3,4-oxadiazol-2(3H)-one hydrochloride] | 39 nM | 870 nM
C[C@H](Nc1c(F)c(-c2n[nH]c(=O)o2)cc(F)c1Cl)[C@H]1CC[C@H](N)CC1 [Example 169, 5-[3-({(1S)-1-[(1r,4S)-4-aminocyclohexyl]ethyl}amino)-4-chloro-2,5-difluorophenyl]-1,3,4-oxadiazol-2(3H)-one hydrochloride] | 6.5 nM | 310 nM
NCC(O)C1CCN(c2cc(-c3n[nH]c(=O)o3)ccc2C(F)(F)F)CC1 (stereo not drawn) [Example 14, 5-{3-[4-(2-amino-1-hydroxyethyl)piperidin-1-yl]-4-(trifluoromethyl)phenyl}-1,3,4-oxadiazol-2(3H)-one hydrochloride] | 12 nM | 1300 nM

Results, then the compound that gave them:

IC50 [1] | GI50 [2] | SMILES
19 nM | 270 nM | O=c1[nH]nc(-c2ccc(C(F)(F)F)c(NCC3(F)CCNCC3)c2)o1 [Example 108, 5-[3-{[(4-fluoropiperidin-4-yl)methyl]amino}-4-(trifluoromethyl)phenyl]-1,3,4-oxadiazol-2(3H)-one hydrochloride]
2.8 nM | 30 nM | C[C@H](Nc1cc(-c2n[nH]c(=O)o2)cc(F)c1C(F)(F)F)C1(F)CCNCC1 [Example 159, 5-[3-fluoro-5-{[(1S)-1-(4-fluoropiperidin-4-yl)ethyl]amino}-4-(trifluoromethyl)phenyl]-1,3,4-oxadiazol-2(3H)-one hydrochloride]
1 nM | 75 nM | C[C@H](Nc1cc(-c2n[nH]c(=O)o2)cc(F)c1Br)C1CCNCC1 [Example 83, 5-(4-bromo-3-fluoro-5-{[(1S)-1-(piperidin-4-yl)ethyl]amino}phenyl)-1,3,4-oxadiazol-2(3H)-one hydrochloride]
5.4 nM | 250 nM | C[C@H](Nc1cc(-c2n[nH]c(=O)o2)cc(F)c1F)C1CCNCC1 [Example 89, 5-(3,4-difluoro-5-{[(1S)-1-(piperidin-4-yl)ethyl]amino}phenyl)-1,3,4-oxadiazol-2(3H)-one]
